The source of these data is patent publication US20220106296A1, “CYANOTRIAZOLE COMPOUNDS AND USES THEREOF” (Novartis AG, priority 2018, published 2022).

In assay [1] the test system is T. b. brucei Lister427 bloodstream form parasites. Description: T. b. brucei growth inhibition assay (CellTiter-Glo, 48 hours). The settings on record: Trypanosoma brucei. The class given is cell-based. The text has this:
Bloodstream form of T. b. brucei Lister427 strain was obtained from the Genomics Institute of the Novartis Research Foundation. This strain was used for carrying out growth inhibition and kill kinetics assays. T. b. gambiense STIB930 and T. b. rhodesiense STIB900 were obtained from Swiss TPH, were used for carrying out the growth inhibition assays.
Bloodstream form T. b. brucei Lister 427 parasites were continuously passaged in HMI-9 medium formulated from IMDM medium (Invitrogen), 10% heat-inactivated fetal bovine serum (FBS), 10% Serum Plus medium supplement (SAFC Biosciences), 1 mM hypoxanthine (Sigma-Aldrich), 50 μM bathocuproine disulfonic acid (Sigma-Aldrich), 1.5 mM cysteine (Sigma-Aldrich), 1 mM pyruvic acid (Sigma-Aldrich), 39 μg/mL thymidine (Sigma-Aldrich), and 14 μL/L beta-mercapthoethanol (Sigma-Aldrich); all concentrations of added components refer to that in complete HMI-9 medium. The parasites were cultured in 10 mL of HMI-9 medium in T75 CELL-STAR tissue culture flasks at 37° C./5% CO2.
To determine compound growth inhibitory potency on T. b. brucei Lister427 bloodstream form parasites, 200 nL of 10-point, 3 fold serially diluted compounds in DMSO were transferred to the wells of white, solid bottom 384-well plates (Greiner Bio-One) by either Echo 555 acoustic liquid handling system or Mosquito. Then, 1×10^4 of T. b. brucei parasites in 40 μL of HMI-9 medium were added to each well, and the plates were incubated for 48 hours at 37° C. in 5% CO2 incubators. Parasite numbers in individual plate wells were determined through quantification of intracellular ATP amount. The CellTiter-Glo luminescent cell viability reagent (Promega) was added to plate wells, and ATP-dependent luminescence signal was measured on Tecan M1000 plate Reader after 30 min incubation. Luminescence values in wells with compounds were divided by the average luminescence value of the plate DMSO controls, and used for calculation of compound IC50 values.

The test system of assay [2] is intracellular T. cruzi amastigotes. Description: T. cruzi amastigote growth inhibition assay (NIH 3T3 host cells, β-galactosidase readout). The class given is cell-based. The settings on record: Trypanosoma cruzi, NIH3T3, read-out: (c) T.c.* IC50. The protocol:
NIH 3T3 fibroblast cells (ATCC) were maintained in RPMI-1640 medium (Life Technologies) supplemented with 10% heat-inactivated fetal bovine serum and 100 IU penicillin/100 μg/ml streptomycin at 37° C./5% CO2. T. cruzi Tulahuen parasites constitutively expressing E. coli β-galactosidase were maintained in tissue culture as an infection in NIH 3T3 fibroblast cells. Briefly, 2×10^7 T. cruzi trypomastigotes were used to infect 6×10^5 NIH 3T3 cells growing in T75 CELLSTAR tissue culture flasks and cultured at 37° C./5% CO2 until proliferating intracellular parasites lysed host 3T3 cells and were released into the culture medium (typically 6-7 days). During the infection, the tissue culture medium was changed every two days. Number of T. cruzi trypomastigotes present in 1 ml of medium was determined using a haemocytometer.
To determine compound potency on intracellular T. cruzi amastigotes, NIH 3T3 cells were re-suspended in phenol red-free RPMI-1640 medium containing 3% heat-inactivated fetal bovine serum and 100 IU penicillin/100 μg/ml streptomycin, seeded at 1,000 cells/well (40 μl) in white, clear bottom 384-well plates (Greiner Bio-One), and incubated overnight at 37° C./5% CO2. The following day, 100 nl of each compound in DMSO were transferred to individual plate wells by Echo 555 acoustic liquid handling system. After one hour incubation, 1×10^6 of tissue culture-derived T. cruzi trypomastigotes, in 10 μl of phenol red-free RPMI-1640 medium supplemented with 3% heat-inactivated fetal bovine serum and 100 IU penicillin/100 μg/ml streptomycin were added to each well. Plates were then incubated for 6 days at 37° C./5% CO2. Intracellular T. cruzi parasites were quantified by measuring the activity of parasite-expressed β-galactosidase. Ten microliters of a chromogenic β-galactosidase substrate solution (0.6 mM chlorophenol red-β-D-galactopyranoside/0.6% NP-40 in PBS; both reagents from Calbiochem) were added to each well and incubated for 2 h at room temperature. After incubation, absorption was measured at 570 nm on SpectraMax M2 plate reader (Molecular Devices). Measured absorbance values in wells with compounds were divided by the average absorbance value of the plate DMSO controls, and used for calculation of compound EC50 values as described above.

A value given as a limit tells only on which side of the number the result lay.

A word on the IC50: it is the concentration at which inhibition is half-maximal. With `N#Cc1ncn(CC(=O)N2Cc3ccc(-c4c(C(F)(F)F)ccnc4F)cc3C2)n1` [Example 22, 1-(2-(5-(2-fluoro-4-(trifluoromethyl)pyridin-3-yl)isoindolin-2-yl)-2-oxoethyl)-1H-1,2,4-triazole-3-carbonitrile], the IC50 in assay [1] is 100 to 1000 nM; in assay [2], less than 100 nM. Taken in the same sequence, the figures for `Cc1ncccc1-c1ccc2c(c1)CN(C(=O)Cn1cnc(C#N)n1)C2` [Example 13, 1-(2-(5-(2-methylpyridin-3-yl)isoindolin-2-yl)-2-oxoethyl)-1H-1,2,4-triazole-3-carbonitrile] were 100 to 1000 nM and 100 to 1000 nM. Taken in the same sequence, the figures for `N#Cc1ncn(CC(=O)N2Cc3ccc(-c4c(Cl)cncc4C(F)(F)F)cc3C2)n1` [Example 2, 1-(2-(5-(3-chloro-5-(trifluoromethyl)pyridin-4-yl)isoindolin-2-yl)-2-oxoethyl)-1H-1,2,4-triazole-3-carbonitrile] were 100 to 1000 nM and less than 100 nM. Taken in the same sequence, the figures for `COCCOc1cc(F)ccc1-c1ccc2c(c1)CN(C(=O)Cn1cnc(C#N)n1)C2` [Example 39, 1-(2-(5-(4-fluoro-2-(2-methoxyethoxy)phenyl)isoindolin-2-yl)-2-oxoethyl)-1H-1,2,4-triazole-3-carbonitrile] were 100 to 1000 nM and not below 1000 nM. On to `N#Cc1ncn(CC(=O)N2Cc3ccc(-c4ccccc4OC(F)(F)F)cc3C2)n1` [Example 40, 1-(2-oxo-2-(5-(2-(trifluoromethoxy)phenyl)isoindolin-2-yl)ethyl)-1H-1,2,4-triazole-3-carbonitrile], for which the IC50 in assay [1] and in assay [2] was 100 to 1000 nM each time. Regarding `N#Cc1ncn(CC(=O)N2Cc3ccc(-c4cc(F)ncc4Cl)cc3C2)n1` [Example 3, 1-(2-(5-(5-chloro-2-fluoropyridin-4-yl)isoindolin-2-yl)-2-oxoethyl)-1H-1,2,4-triazole-3-carbonitrile], the IC50 in assay [1] and in assay [2] was less than 100 nM each time. For the molecule `N#Cc1ncn(CC(=O)N2Cc3ccc(-c4ccc(F)cc4N4CCCC4)cc3C2)n1` [Example 11, 1-(2-(5-(4-fluoro-2-(pyrrolidin-1-yl)phenyl)isoindolin-2-yl)-2-oxoethyl)-1H-1,2,4-triazole-3-carbonitrile], the IC50 in assay [1] and in assay [2] was 100 to 1000 nM each time. In the case of `N#Cc1ncn(CC(=O)N2Cc3ccc(-c4c(Cl)ccnc4C(F)(F)F)cc3C2)n1` [Example 18, 1-(2-(5-(4-chloro-2-(trifluoromethyl)pyridin-3-yl)isoindolin-2-yl)-2-oxoethyl)-1H-1,2,4-triazole-3-carbonitrile], the figures for the concentration for half-maximal inhibition (IC50) in assay [1] and in assay [2] were 100 to 1000 nM and less than 100 nM, respectively.

For the molecule `N#Cc1ncn(CC(=O)N2Cc3ccc(-c4c(F)cncc4Cl)cc3C2)n1` [Example 23, 1-(2-(5-(3-chloro-5-fluoropyridin-4-yl)isoindolin-2-yl)-2-oxoethyl)-1H-1,2,4-triazole-3-carbonitrile], the IC50 in assay [1] is less than 100 nM; in assay [2] it was 100 to 1000 nM. Taken in the same sequence, the figures for `COc1ccc(-c2ccc3c(c2)CN(C(=O)Cn2cnc(C#N)n2)C3)c(C(F)(F)F)n1` [Example 14, 1-(2-(5-(6-methoxy-2-(trifluoromethyl)pyridin-3-yl)isoindolin-2-yl)-2-oxoethyl)-1H-1,2,4-triazole-3-carbonitrile] were 100 to 1000 nM and less than 100 nM. Taken in the same sequence, the figures for `N#Cc1ncn(CC(=O)N2Cc3ccc(-c4c(F)ccnc4Cl)cc3C2)n1` [Example 21, 1-(2-(5-(2-chloro-4-fluoropyridin-3-yl)isoindolin-2-yl)-2-oxoethyl)-1H-1,2,4-triazole-3-carbonitrile] were 100 to 1000 nM and less than 100 nM. Taken in the same sequence, the figures for `N#Cc1ncn(CC(=O)N2Cc3ccc(-c4c(F)cncc4C(F)(F)F)cc3C2)n1` [Example 16, 1-(2-(5-(3-fluoro-5-(trifluoromethyl)pyridin-4-yl)isoindolin-2-yl)-2-oxoethyl)-1H-1,2,4-triazole-3-carbonitrile] were 100 to 1000 nM and less than 100 nM.

Take `N#Cc1ncn(CC(=O)N2Cc3ccc(-c4cccnc4OCC(F)(F)F)cc3C2)n1` [Example 5, 1-(2-oxo-2-(5-(2-(2,2,2-trifluoroethoxy)pyridin-3-yl)isoindolin-2-yl)ethyl)-1H-1,2,4-triazole-3-carbonitrile]: the IC50 in assay [1] and in assay [2] was 100 to 1000 nM each time.

Regarding `Cn1nc(C(F)(F)F)cc1-c1ccc2c(c1)CN(C(=O)Cn1cnc(C#N)n1)C2` [Example 48, 1-(2-(5-(1-methyl-3-(trifluoromethyl)-1H-pyrazol-5-yl)isoindolin-2-yl)-2-oxoethyl)-1H-1,2,4-triazole-3-carbonitrile], the IC50 in assay [1] and in assay [2] was 100 to 1000 nM in each case. Turning to `N#Cc1ncn(CC(=O)N2Cc3ccc(-c4cccnc4OC(F)(F)F)cc3C2)n1` [Example 17, 1-(2-oxo-2-(5-(2-(trifluoromethoxy)pyridin-3-yl)isoindolin-2-yl)ethyl)-1H-1,2,4-triazole-3-carbonitrile], the IC50 in assay [1] and in assay [2] was 100 to 1000 nM in each case. In the case of `COc1ccc(Cl)cc1-c1ccc2c(c1)CN(C(=O)Cn1cnc(C#N)n1)C2` [Example 52, 1-(2-(5-(5-chloro-2-methoxyphenyl)isoindolin-2-yl)-2-oxoethyl)-1H-1,2,4-triazole-3-carbonitrile], the IC50 in assay [1] and in assay [2] was 100 to 1000 nM throughout.

Take `N#Cc1ncn(CC(=O)N2Cc3ccc(-c4c(F)cccc4C(F)(F)F)cc3C2)n1` [Example 12, 1-(2-(5-(2-fluoro-6-(trifluoromethyl)phenyl)isoindolin-2-yl)-2-oxoethyl)-1H-1,2,4-triazole-3-carbonitrile]: the IC50 in assay [1] and in assay [2] was less than 100 nM each time. For the molecule `N#Cc1ncn(CC(=O)N2Cc3ccc(-c4cncc(F)c4C(F)(F)F)cc3C2)n1` [Example 9, 1-(2-(5-(5-fluoro-4-(trifluoromethyl)pyridin-3-yl)isoindolin-2-yl)-2-oxoethyl)-1H-1,2,4-triazole-3-carbonitrile], the IC50 in assay [1] and in assay [2] was 100 to 1000 nM each time. As for `N#Cc1ncn(CC(=O)N2Cc3ccc(-c4cccnc4C(F)F)cc3C2)n1` [Example 1, 1-(2-(5-(2-(difluoromethyl)pyridin-3-yl)isoindolin-2-yl)-2-oxoethyl)-1H-1,2,4-triazole-3-carbonitrile], the IC50 in assay [1] and in assay [2] was 100 to 1000 nM in each case. `N#Cc1ncn(CC(=O)N2Cc3ccc(-c4c(Cl)ccnc4F)cc3C2)n1` [Example 24, 1-(2-(5-(4-chloro-2-fluoropyridin-3-yl)isoindolin-2-yl)-2-oxoethyl)-1H-1,2,4-triazole-3-carbonitrile]: the IC50 in assay [1] and in assay [2] was 100 to 1000 nM in each case.

In the case of `N#Cc1ncn(CC(=O)N2Cc3ccc(-c4cccc(C#N)c4F)cc3C2)n1` [Example 44, 1-(2-(5-(3-cyano-2-fluorophenyl)isoindolin-2-yl)-2-oxoethyl)-1H-1,2,4-triazole-3-carbonitrile], the IC50 in assay [1] and in assay [2] was 100 to 1000 nM in each case.

`N#Cc1ncn(CC(=O)N2Cc3ccc(-c4cc(F)cc(F)c4)cc3C2)n1` [Example 74, 1-(2-(5-(3,5-difluorophenyl)isoindolin-2-yl)-2-oxoethyl)-1H-1,2,4-triazole-3-carbonitrile] displayed an IC50 in assay [1] not below 1000 nM.
